Literature values as cited in patent US20070071683A1, “Ultrasonic concentration of carrier particles” (The Regents of the University of California, priority 2005, published 2007).

System: tumor
Settings: paclitaxel alone

Question: For `CC(=O)O[C@H]1C(=O)[C@@]2(C)[C@H]([C@H](OC(=O)c3ccccc3)[C@]3(O)C[C@H](OC(=O)[C@H](O)[C@@H](NC(=O)c4ccccc4)c4ccccc4)C(C)=C1C3(C)C)[C@]1(OC(C)=O)CO[C@@H]1C[C@@H]2O` [paclitaxel], which “effect on tumor volume” value is on record?
Answer: did not affect tumor volume
